Experimental findings from PubChem BioAssay AID2060329 (Molecular Pharmacology Branch, DTP, NCI, 2025) are described below.

This assay has as its system MCF7 multi-cell spheroids with HUVEC/MSC, viability. Briefly: Anticancer human tumor MCF7 cell line growth inhibition [IpAb].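 As to all read-outs here: spheroids exposed to agents for seven days before readout.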 The settings on record: for viability, T/C: stronger effect = lower value. The method in brief:
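Spheroids of 60% malignant cells, 25% HUVEC and 15% MSC were exposed to targeted agents combined with ipatasertib or abemaciclib. Doses started at or near clinical Cmax (10 microM when unknown) and fell in half-log steps.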

Several values for one entry are separate records, joined by “and”; a condition that tells them apart may be missing. Identical values can stand only once.

As usually defined, the IC50 is the concentration at which inhibition is half-maximal. A word on the viability, T/C: it is the ratio of treated to control. Turning to `Cn1ncc(Cl)c1-c1cc(C(=O)NC(CN)Cc2cccc(F)c2)sc1Cl` (configuration not stated) + CCN1CCN(Cc2ccc(Nc3ncc(F)c(-c4cc(F)c5nc(C)n(C(C)C)c5c4)n3)nc2)CC1, the IC50 (curve of first compound, second compound 0.01 µM) turned out to be 847 nM; the IC50 (curve of first compound, second compound 0.0316 µM) was found to be 758 nM; the IC50 (curve of first compound, second compound 0.1 µM) was found to be 838 nM; the IC50 (curve of first compound, second compound 0.316 µM) was 1320 nM; the IC50 (curve of first compound, second compound 1 µM) was 715 nM. In addition, the viability, T/C was 93% (second compound 0.01 µM, first compound 0.0316 µM); 85.9% (second compound 0.01 µM, first compound 0.1 µM); 65.2% (second compound 0.01 µM, first compound 0.316 µM); 53.2% (second compound 0.01 µM, first compound 1 µM); 15% (second compound 0.01 µM, first compound 3.16 µM); 0.18% (second compound 0.01 µM, first compound 10 µM). For the same compound, the viability, T/C was 91.9% (second compound 0.0316 µM, first compound 0.0316 µM); 89.6% (second compound 0.0316 µM, first compound 0.1 µM); 70.7% (second compound 0.0316 µM, first compound 0.316 µM); 46.8% (second compound 0.0316 µM, first compound 1 µM); 4.25% (second compound 0.0316 µM, first compound 3.16 µM); 0.13% (second compound 0.0316 µM, first compound 10 µM). Further, the viability, T/C runs as follows: (second compound 0.1 µM, first compound 0.0316 µM) 94.7%; (second compound 0.1 µM, first compound 0.1 µM) 86.3%; (second compound 0.1 µM, first compound 0.316 µM) 69%; (second compound 0.1 µM, first compound 1 µM) 53.1%; (second compound 0.1 µM, first compound 3.16 µM) 5.55%; (second compound 0.1 µM, first compound 10 µM) 0.15%. In addition, the viability, T/C (second compound 0.316 µM, first compound 0.0316 µM) was 95.7%; the viability, T/C (second compound 0.316 µM, first compound 0.1 µM) is 88.4%; the viability, T/C (second compound 0.316 µM, first compound 0.316 µM) was 78.8%; the viability, T/C (second compound 0.316 µM, first compound 1 µM) was 64.5%; the viability, T/C (second compound 0.316 µM, first compound 3.16 µM) is 7.44%; the viability, T/C (second compound 0.316 µM, first compound 10 µM) is 0.17%. The viability, T/C is, setting by setting: (second compound 1 µM, first compound 0.0316 µM) 98.7%; (second compound 1 µM, first compound 0.1 µM) 81.1%; (second compound 1 µM, first compound 0.316 µM) 62.9%; (second compound 1 µM, first compound 1 µM) 56.2%; (second compound 1 µM, first compound 3.16 µM) 0.7%; (second compound 1 µM, first compound 10 µM) 0.23%.

Take `CC(C)n1nc(-c2ccc3oc(N)nc3c2)c2c(N)ncnc21`: the viability, T/C (compound 0.000316 µM) is 98.9% and 88.3%; the viability, T/C (compound 0.001 µM) is 86.4% and 81.6%; the viability, T/C (compound 0.00316 µM) was 80.8% and 82.8%; the viability, T/C (compound 0.01 µM) is 73.5% and 65.5%; the viability, T/C (compound 0.0316 µM) is 42.5% and 29.7%; the viability, T/C (compound 0.1 µM) is 25% and 22.1%. Besides, the IC50 (curve of compound) is 25.9 nM and 16.4 nM.
